# Values quoted from earlier work as cited in patent publication US20140243422A1, “METHODS OF TREATING BEHAVIORAL AND PSYCHIATRIC DISORDERS” (ELAN PHARMACEUTICALS, INC., priority 2011, published 2014).
# Tested on: brain myo-inositol levels
# Details: bipolar patients, therapeutic doses, within a few days; cited from earlier work
compound,measurement,value
"O=C([O-])[O-].[Li+].[Li+] [Lithium, lithium carbonate]",reduction of brain myo-inositol levels,~30%
